System: not listed separately
Assay: Half life in Sprague-Dawley rat at 3 mg/kg, iv measured by LC/MS analysis
Assay type: ADME, organism-based
Details: in vivo

`CN1CCN(C(=O)c2cc3cc(Cl)ccc3[nH]2)CC1` [JNJ-7777120] gave a half-life of 48 min.

Molecular target: Histamine H4 receptor (Homo sapiens, UniProt Q9H3N8)
Assay: Binding affinity to histamine H4 receptor (unknown origin) assessed as inhibition constant
Details: not given

Sequence of Histamine H4 receptor (Q9H3N8 whole entry): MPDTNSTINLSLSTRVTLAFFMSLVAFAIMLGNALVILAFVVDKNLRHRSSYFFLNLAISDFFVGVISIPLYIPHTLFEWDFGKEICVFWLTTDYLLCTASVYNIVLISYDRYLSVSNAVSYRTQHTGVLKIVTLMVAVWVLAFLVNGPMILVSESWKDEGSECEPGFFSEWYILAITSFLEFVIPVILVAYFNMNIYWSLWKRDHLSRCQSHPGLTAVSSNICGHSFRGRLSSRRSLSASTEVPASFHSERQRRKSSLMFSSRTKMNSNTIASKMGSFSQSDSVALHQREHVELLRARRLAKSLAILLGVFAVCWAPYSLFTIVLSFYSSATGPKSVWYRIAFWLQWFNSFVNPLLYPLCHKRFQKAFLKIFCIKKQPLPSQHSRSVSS

First: Cc1cc(C)c2nc(-c3cnc(NCCCC4CCN(C)CC4)nc3C)[nH]c2c1 [TOREFORANT]
Second: CN1CCN(C(=O)c2nc3cc(Cl)ccc3[nH]2)CC1
The Ki of the first is 3.2-fold lower: 8.4 nM for the first, 27 nM for the second.

`CN1CCN(c2cc(-c3ccc(Cl)cc3)nc(N)n2)CC1` and `O=C(c1cc2ccccc2[nH]1)N1CCNCC1` are within 1.5-fold of each other in Ki: 4.8 nM for the first, 4.9 nM for the second.

Molecular target: T1, Cysteinyl leukotriene receptor 1 (Cavia porcellus, UniProt Q2NNR5)
T1 sequence (Q2NNR5 whole entry): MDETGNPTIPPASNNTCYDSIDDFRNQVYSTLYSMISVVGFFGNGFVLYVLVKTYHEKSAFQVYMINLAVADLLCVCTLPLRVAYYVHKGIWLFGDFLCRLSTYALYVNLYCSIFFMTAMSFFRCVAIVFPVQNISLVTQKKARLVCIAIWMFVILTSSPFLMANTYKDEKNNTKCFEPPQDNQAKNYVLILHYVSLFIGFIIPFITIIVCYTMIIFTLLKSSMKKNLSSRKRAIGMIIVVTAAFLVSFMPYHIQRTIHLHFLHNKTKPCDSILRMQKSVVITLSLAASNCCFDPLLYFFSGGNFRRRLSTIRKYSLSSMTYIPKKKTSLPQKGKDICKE
Assay: Inhibition of guinea pig leukotriene D4
Details: not given

`Cn1nccc1-c1ccc(Sc2ccc(C3(C(N)=O)CCOCC3)cc2)cc1` and `COC1(c2cc(F)cc(OCc3ccc4c(ccc(=O)n4C)c3)c2)CCOCC1` [ZD-2138] are within 1.5-fold of each other in IC50: 229 nM for the first, 300 nM for the second.

Molecular target: T2, Leukotriene C4 synthase (Homo sapiens, UniProt Q16873)
T2 sequence (Q16873 whole entry): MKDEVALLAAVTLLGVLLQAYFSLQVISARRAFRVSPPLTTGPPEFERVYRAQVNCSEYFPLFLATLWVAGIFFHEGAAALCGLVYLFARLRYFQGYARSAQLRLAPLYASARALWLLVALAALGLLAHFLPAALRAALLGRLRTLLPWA
Assay: Inhibition of LTC4 (unknown origin)
Details: not given

`Oc1ccc(CCNC(=S)Nc2ccc(Br)cn2)cc1` and `S=C(NCCc1c[nH]c2ccccc12)Nc1ccc(Cl)cn1` are the same in IC50: 5000 nM for the first, 5000 nM for the second.

Compared with `Cc1ccc(NC(=S)NC(C)c2cccc3ccccc23)nc1` (configuration not stated), `Cc1cccc(NC(=S)NC(C)c2cccc3ccccc23)n1` (configuration not stated) is 320-fold higher in IC50: 5 nM for the first, 1600 nM for the second. The first is the more potent here.

`CCOC(=O)Cc1csc(NC(=S)NC(C)c2cccc3ccccc23)n1` (configuration not stated) showed an IC50 of 2 nM.
